Results from ChEMBL document CHEMBL5537162, “Development of Antibacterial Peptides with Membrane Disruption and Folate Pathway Inhibitory Activities against Methicillin-Resistant Staphylococcus aureus” (J Med Chem, 2024).
Active and inactive are the calls of the source. No cut-off for these calls is given here.

Key:
[1] = Antiproliferative activity against HEK293T cells assessed as reduction in cell viability measured for 48 hrs by MTT assay; assay type: toxicity, cell-based, HEK-293T; details: human
Staphylococcus aureus [2] = assay: Antibacterial activity against methicillin-resistant Staphylococcus aureus 18567 assessed as bacterial growth inhibition incubated for 24 hrs by CLSI based micro-broth dilution assay; assay type: functional
Staphylococcus aureus [3] = assay: Antibacterial activity against methicillin-resistant Staphylococcus aureus 18878 assessed as bacterial growth inhibition incubated for 24 hrs by CLSI based micro-broth dilution assay; assay type: functional
Staphylococcus aureus [4] = assay: Antibacterial activity against methicillin-resistant Staphylococcus aureus 19498 assessed as bacterial growth inhibition incubated for 24 hrs by CLSI based micro-broth dilution assay; assay type: functional
Staphylococcus aureus [5] = assay: Antibacterial activity against methicillin-resistant Staphylococcus aureus 19167 assessed as bacterial growth inhibition incubated for 24 hrs by CLSI based micro-broth dilution assay; assay type: functional
Candida albicans = assay: Antifungal activity against Candida albicans assessed as inhibition of fungal growth; assay type: functional
Staphylococcus aureus [6] = assay: Drug resistance, ratio of MIC for methicillin-resistant Staphylococcus aureus after 1 week exposure to MIC for methicillin-resistant Staphylococcus aureus during first exposure; assay type: functional; details: time 1 weeks
Staphylococcus aureus [7] = assay: Drug resistance, ratio of MIC for methicillin-resistant Staphylococcus aureus after 3 days exposure to MIC for methicillin-resistant Staphylococcus aureus during first exposure; assay type: functional; details: time 3 day
Staphylococcus aureus [8] = assay: Drug resistance, ratio of MIC for methicillin-resistant Staphylococcus aureus after 7 days exposure to MIC for methicillin-resistant Staphylococcus aureus during first exposure; assay type: functional; details: time 7 day
[9] = Stability in methicillin-resistant Staphylococcus aureus supernatants measured for 12 hrs by RP-HPLC analysis; assay type: physicochemical; details: read-out: Stability
[10] = Stability in mouse blood plasma measured for 12 hrs by RP-HPLC analysis; assay type: ADME, cell-free; details: read-out: Stability
[11] = biological target: T1, Monofunctional C1-tetrahydrofolate synthase, mitochondrial (Homo sapiens) (UniProt Q6UB35); assay: Inhibition of FTHFS (unknown origin) expressed in Escherichia coli BL21 (DE3) incubated for 10 mins by UV-spectrophotometer analysis
T1 sequence (whole entry): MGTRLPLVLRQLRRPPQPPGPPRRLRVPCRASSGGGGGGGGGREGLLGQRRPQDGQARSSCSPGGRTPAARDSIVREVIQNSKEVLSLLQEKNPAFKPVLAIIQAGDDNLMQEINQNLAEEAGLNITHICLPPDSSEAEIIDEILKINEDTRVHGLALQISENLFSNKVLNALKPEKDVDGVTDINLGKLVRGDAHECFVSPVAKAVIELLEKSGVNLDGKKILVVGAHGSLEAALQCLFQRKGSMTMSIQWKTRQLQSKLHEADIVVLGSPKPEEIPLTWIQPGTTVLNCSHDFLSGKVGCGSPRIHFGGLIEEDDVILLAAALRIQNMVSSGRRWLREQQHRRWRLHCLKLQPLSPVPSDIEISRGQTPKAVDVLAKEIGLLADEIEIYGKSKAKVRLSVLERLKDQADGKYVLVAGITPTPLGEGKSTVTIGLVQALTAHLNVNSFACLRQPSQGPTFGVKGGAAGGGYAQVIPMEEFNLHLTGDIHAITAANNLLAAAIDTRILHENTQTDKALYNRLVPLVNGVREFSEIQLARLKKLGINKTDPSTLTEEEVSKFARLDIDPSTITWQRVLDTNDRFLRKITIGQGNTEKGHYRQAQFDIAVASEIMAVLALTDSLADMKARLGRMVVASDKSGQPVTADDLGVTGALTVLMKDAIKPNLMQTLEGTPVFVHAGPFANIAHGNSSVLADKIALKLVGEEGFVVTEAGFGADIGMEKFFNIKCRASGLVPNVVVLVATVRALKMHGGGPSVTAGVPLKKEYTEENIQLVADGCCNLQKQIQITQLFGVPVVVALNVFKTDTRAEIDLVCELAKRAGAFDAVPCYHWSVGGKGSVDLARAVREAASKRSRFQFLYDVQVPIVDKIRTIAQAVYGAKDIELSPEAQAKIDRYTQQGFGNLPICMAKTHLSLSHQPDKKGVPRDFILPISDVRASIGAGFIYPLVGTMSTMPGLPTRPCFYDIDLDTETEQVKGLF

Staphylococcus aureus [12] = assay: Antibacterial activity against Methicillin-resistant Staphylococcus aureus infected in ICR mouse skin infection model assessed as reduction in skin abscess volume at 40 mg/kg, sc measured upto 10 days; assay type: functional, organism-based; details: time <= 10.0 day

Row | Substance | IC50 at 48 h [1] | MIC (Staphylococcus aureus [2]) | MIC (Staphylococcus aureus [3]) | MIC (Staphylococcus aureus [4]) | MIC (Staphylococcus aureus [5]) | MIC (Candida albicans) | Ratio (Staphylococcus aureus [6]) | Ratio (Staphylococcus aureus [7]) | Ratio (Staphylococcus aureus [8]) | remaining at 12 h [9] | remaining at 12 h [10] | inhibition [11] | Activity (Staphylococcus aureus [12])
1 | H-RRRLARRLIFFIRRAW-NH2 | > 320 µM | 6 µM | 6 µM | 3 µM | 6 µM | 3 µM | 8 | 50 | 100 | 25% | 20% | Active | Active
2 | H-LARVARRVIRFIRRAW-NH2 | > 320 µM | 3 µM | 6 µM | 6 µM | 6 µM | 3 µM | 4 | 50 | 100 | 50% | 20% | Active | Active
